Numbered stars: 1 amine (or outer) side, 2 acyl side, 3 side chain; on linkers, the order of the positions; unused ones are H or OH. Bridge positions count the residues as written; N and C are the ends. Square brackets hold non-standard residues; d marks the D form. Side chains are listed from the residue outwards. Peptide text beside a SMILES is read from it. * marks the point of attachment. Trp(1-Me,7-Cl) = Cn1cc(C[C@H](N)C(=O)O)c2cccc(Cl)c21; dPhe(3-CONH2) = NC(=O)c1cccc(C[C@@H](N)C(=O)O)c1; NMePhe(4-Cl) = CN[C@@H](Cc1ccc(Cl)cc1)C(=O)O; Piperazinyl(4-CH2COOH) = O=C(O)CN1CCN(*)CC1; Trp(1-Me) = Cn1cc(C[C@H](N)C(=O)O)c2ccccc21; NMe3Pal = CN[C@@H](Cc1cccnc1)C(=O)O; NMeF = CN[C@@H](Cc1ccccc1)C(=O)O; Gly(cBu) = N[C@H](C(=O)O)C1CCC1; NMeE = CN[C@@H](CCC(=O)O)C(=O)O; Aad = N[C@@H](CCCC(=O)O)C(=O)O; NMeN = CN[C@@H](CC(N)=O)C(=O)O; dAhp(2) = CCCCC[C@@H](N)C(=O)O; Chg = N[C@H](C(=O)O)C1CCCCC1; CO = O=C([*:1])[*:2]
Target: T1, Recombinant Human EphA2 Fc Protein (Homo sapiens, UniProt P29317)
T1 construct: purchased Elabscience
Test: SPR interaction analysis (Biacore T200), kinetics of peptides against EphA2
Type: binding
Conditions: Recombinant Human EphA2 Fc Protein captured by Human Antibody Capture kit; single-cycle kinetics; 25° C.; HBS-P+ buffer with 1% DMSO
Outline: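 On a Biacore T200 at 25° C, Fc-tagged human EphA2 was captured via anti-human antibody; peptides ran as five serial dilutions in HBS-P+ pH 7.4 with 1% DMSO by single-cycle kinetics. Baseline-subtracted data fitted for ka and kd, from which KD was derived.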

Compound	Kd [nM]
CC(C)C[C@@H]1NC(=O)[C@H](CC(N)=O)NC(=O)[C@H](Cc2cccnc2)N(C)C(=O)[C@@H](C)NC(=O)CSC[C@@H](C(N)=O)NC(=O)[C@H](CC(=O)N(C)C)NC(=O)[C@H]([C@@H](C)O)NC(=O)[C@H](Cc2cn(C)c3ccccc23)NC(=O)[C@H](CCCCNC(=O)N2CCN(CC(=O)O)CC2)NC(=O)[C@H](Cc2cn(C)c3ccccc23)NC(=O)[C@H](Cc2ccccc2)N(C)C(=O)[C@H](CCCC(=O)O)NC1=O [PDC_EphA2-00018529, da-Me3Py-N-L-Hgl-MeF-W1Me-KCOpipzaa-W1Me-T-Ndm-C-NH2] ({CH2CO}-[dA][NMe3Pal]NL[Aad][NMeF][Trp(1-Me)]K([CO-Piperazinyl(4-CH2COOH)])[Trp(1-Me)]TD(NMe2)C-NH2; thioether N-12)	< 1
CNC(=O)C[C@@H]1NC(=O)[C@H]([C@@H](C)O)NC(=O)[C@H](Cc2cn(C)c3ccccc23)NC(=O)[C@H](CCCCNC(=O)N2CCN(CC(=O)O)CC2)NC(=O)[C@H](Cc2cn(C)c3ccccc23)NC(=O)[C@H](CCC(=O)O)N(C)C(=O)[C@H](CCCC(N)=O)NC(=O)[C@H](CC(C)C)NC(=O)[C@H](CC(N)=O)NC(=O)[C@H](Cc2cccnc2)N(C)C(=O)[C@@H](C)NC(=O)CSC[C@@H](C(N)=O)NC1=O [PDC_EphA2-00018533, da-Me3Py-N-L-Hgn-MeE-W1Me-KCOpipzaa-W1Me-T-Nmm-C-NH2] ({CH2CO}-[dA][NMe3Pal]NL[Aad](NH2)[NMeE][Trp(1-Me)]K([CO-Piperazinyl(4-CH2COOH)])[Trp(1-Me)]TD(NHMe)C-NH2; thioether N-12)	< 1
CC(C)C[C@@H]1NC(=O)[C@H](CC(N)=O)NC(=O)[C@H](Cc2cccnc2)N(C)C(=O)[C@@H](C)NC(=O)CSC[C@@H](C(N)=O)NC(=O)[C@H](CC(=O)N(C)C)NC(=O)[C@H]([C@@H](C)O)NC(=O)[C@H](Cc2cn(C)c3ccccc23)NC(=O)[C@H](CCCCNC(=O)N2CCN(CC(=O)O)CC2)NC(=O)[C@H](Cc2cn(C)c3ccccc23)NC(=O)[C@H](CCC(=O)O)N(C)C(=O)[C@H](CCCC(N)=O)NC1=O [PDC_EphA2-00018534, da-Me3Py-N-L-Hgn-MeE-W1Me-KCOpipzaa-W1Me-T-Ndm-C-NH2] ({CH2CO}-[dA][NMe3Pal]NL[Aad](NH2)[NMeE][Trp(1-Me)]K([CO-Piperazinyl(4-CH2COOH)])[Trp(1-Me)]TD(NMe2)C-NH2; thioether N-12)	< 1
CNC(=O)C[C@@H]1NC(=O)[C@H](C2CCCCC2)NC(=O)[C@H](CC(N)=O)NC(=O)[C@H](Cc2cccnc2)N(C)C(=O)[C@@H](C)NC(=O)CSC[C@@H](C(N)=O)NC(=O)[C@H](CCCC(N)=O)NC(=O)[C@H]([C@@H](C)O)NC(=O)[C@H](Cc2cn(C)c3ccccc23)NC(=O)[C@H](CCCCNC(=O)N2CCN(CC(=O)O)CC2)NC(=O)[C@H](Cc2cn(C)c3ccccc23)NC(=O)[C@H](Cc2ccccc2)N(C)C1=O [PDC_EphA2-00018536, da-Me3Py-N-Chg-Nmm-MeF-W1Me-KCOpipzaa-W1Me-T-Hgn-C-NH2] ({CH2CO}-[dA][NMe3Pal]N[Chg]D(NHMe)[NMeF][Trp(1-Me)]K([CO-Piperazinyl(4-CH2COOH)])[Trp(1-Me)]T[Aad](NH2)C-NH2; thioether N-12)	< 1
C[C@H]1NC(=O)CSC[C@@H](C(N)=O)NC(=O)[C@H](CCCC(N)=O)NC(=O)[C@H]([C@@H](C)O)NC(=O)[C@H](Cc2cn(C)c3ccccc23)NC(=O)[C@H](CCCCNC(=O)N2CCN(CC(=O)O)CC2)NC(=O)[C@H](Cc2cn(C)c3ccccc23)NC(=O)[C@H](Cc2ccc(Cl)cc2)N(C)C(=O)[C@H](CCCC(N)=O)NC(=O)[C@H](C2CCCCC2)NC(=O)[C@H](CC(N)=O)NC(=O)[C@H](Cc2cccnc2)N(C)C1=O [PDC_EphA2-00018538, da-Me3Py-N-Chg-Hgn-MeF4C-W1Me-KCOpipzaa-W1Me-T-Hgn-C-NH2] ({CH2CO}-[dA][NMe3Pal]N[Chg][Aad](NH2)[NMePhe(4-Cl)][Trp(1-Me)]K([CO-Piperazinyl(4-CH2COOH)])[Trp(1-Me)]T[Aad](NH2)C-NH2; thioether N-12)	< 1
CNC(=O)C[C@@H]1NC(=O)[C@H]([C@@H](C)O)NC(=O)[C@H](Cc2cn(C)c3ccccc23)NC(=O)[C@H](CCCCNC(=O)N2CCN(CC(=O)O)CC2)NC(=O)[C@H](Cc2cn(C)c3ccccc23)NC(=O)[C@H](Cc2ccccc2)N(C)C(=O)[C@H](CCCC(N)=O)NC(=O)[C@H](C2CCCCC2)NC(=O)[C@H](CC(N)=O)NC(=O)[C@H](Cc2cccnc2)N(C)C(=O)[C@@H](C)NC(=O)CSC[C@@H](C(N)=O)NC1=O [PDC_EphA2-00018539, da-Me3Py-N-Chg-Hgn-MeF-W1Me-KCOpipzaa-W1Me-T-Nmm-C-NH2] ({CH2CO}-[dA][NMe3Pal]N[Chg][Aad](NH2)[NMeF][Trp(1-Me)]K([CO-Piperazinyl(4-CH2COOH)])[Trp(1-Me)]TD(NHMe)C-NH2; thioether N-12)	< 1
C[C@H]1NC(=O)CSC[C@@H](C(N)=O)NC(=O)[C@H](CC(=O)N(C)C)NC(=O)[C@H]([C@@H](C)O)NC(=O)[C@H](Cc2cn(C)c3ccccc23)NC(=O)[C@H](CCCCNC(=O)N2CCN(CC(=O)O)CC2)NC(=O)[C@H](Cc2cn(C)c3ccccc23)NC(=O)[C@H](Cc2ccccc2)N(C)C(=O)[C@H](CCCC(N)=O)NC(=O)[C@H](C2CCCCC2)NC(=O)[C@H](CC(N)=O)NC(=O)[C@H](Cc2cccnc2)N(C)C1=O [PDC_EphA2-00018540, da-Me3Py-N-Chg-Hgn-MeF-W1Me-KCOpipzaa-W1Me-T-Ndm-C-NH2] ({CH2CO}-[dA][NMe3Pal]N[Chg][Aad](NH2)[NMeF][Trp(1-Me)]K([CO-Piperazinyl(4-CH2COOH)])[Trp(1-Me)]TD(NMe2)C-NH2; thioether N-12)	< 1
CC(C)[C@@H]1NC(=O)[C@H](Cc2cn(C)c3c(Cl)cccc23)NC(=O)[C@H](CC(N)=O)N(C)C(=O)[C@H](CCCC(N)=O)NC(=O)[C@H](C2CCC2)NC(=O)[C@H](CC(N)=O)NC(=O)[C@H](Cc2ccccc2)N(C)C(=O)[C@@H](Cc2cccc(C(N)=O)c2)NC(=O)CSC[C@@H](C(N)=O)NC(=O)[C@H](CCCC(N)=O)NC(=O)[C@H]([C@@H](C)O)NC(=O)[C@H](Cc2cn(C)c3ccccc23)NC1=O [PDC_EphA2-00019421, df3CON-MeF-N-Cbg-Hgn-MeN-W1Me7Cl-V-W1Me-T-Hgn-C-NH2] ({CH2CO}-[dPhe(3-CONH2)][NMeF]N[Gly(cBu)][Aad](NH2)[NMeN][Trp(1-Me,7-Cl)]V[Trp(1-Me)]T[Aad](NH2)C-NH2; thioether N-12)	< 1

Further lines, results first:

Kd [nM]	Compound
< 1	CCCCC[C@H]1NC(=O)CSC[C@@H](C(N)=O)NC(=O)[C@H](CCCC(N)=O)NC(=O)[C@H]([C@@H](C)O)NC(=O)[C@H](Cc2cn(C)c3ccccc23)NC(=O)[C@H](CCCCNC(=O)N2CCN(CC(=O)O)CC2)NC(=O)[C@H](Cc2cn(C)c3ccccc23)NC(=O)[C@H](CCC(=O)O)N(C)C(=O)[C@H](CCCC(N)=O)NC(=O)[C@H](CC(C)C)NC(=O)[C@H](CC(N)=O)NC(=O)[C@H](Cc2cccnc2)N(C)C1=O [PDC_EphA2-00018530, dahp-Me3Py-N-L-Hgn-MeE-W1Me-KCOpipzaa-W1Me-T-Hgn-C-NH2] ({CH2CO}-[dAhp(2)][NMe3Pal]NL[Aad](NH2)[NMeE][Trp(1-Me)]K([CO-Piperazinyl(4-CH2COOH)])[Trp(1-Me)]T[Aad](NH2)C-NH2; thioether N-12)
< 1	CNC(=O)C[C@@H]1NC(=O)[C@H](CC(C)C)NC(=O)[C@H](CC(N)=O)NC(=O)[C@H](Cc2cccnc2)N(C)C(=O)[C@@H](C)NC(=O)CSC[C@@H](C(N)=O)NC(=O)[C@H](CCCC(N)=O)NC(=O)[C@H]([C@@H](C)O)NC(=O)[C@H](Cc2cn(C)c3ccccc23)NC(=O)[C@H](CCCCNC(=O)N2CCN(CC(=O)O)CC2)NC(=O)[C@H](Cc2cn(C)c3ccccc23)NC(=O)[C@H](CCC(=O)O)N(C)C1=O [PDC_EphA2-00018531, da-Me3Py-N-L-Nmm-MeE-W1Me-KCOpipzaa-W1Me-T-Hgn-C-NH2] ({CH2CO}-[dA][NMe3Pal]NLD(NHMe)[NMeE][Trp(1-Me)]K([CO-Piperazinyl(4-CH2COOH)])[Trp(1-Me)]T[Aad](NH2)C-NH2; thioether N-12)
< 1	CC(C)C[C@@H]1NC(=O)[C@H](CC(N)=O)NC(=O)[C@H](Cc2cccnc2)N(C)C(=O)[C@@H](C)NC(=O)CSC[C@@H](C(N)=O)NC(=O)[C@H](CCCC(N)=O)NC(=O)[C@H]([C@@H](C)O)NC(=O)[C@H](Cc2cn(C)c3ccccc23)NC(=O)[C@H](CCCCNC(=O)N2CCN(CC(=O)O)CC2)NC(=O)[C@H](Cc2cn(C)c3ccccc23)NC(=O)[C@H](CCC(=O)O)N(C)C(=O)[C@H](CC(=O)N(C)C)NC1=O [PDC_EphA2-00018532, da-Me3Py-N-L-Ndm-MeE-W1Me-KCOpipzaa-W1Me-T-Hgn-C-NH2] ({CH2CO}-[dA][NMe3Pal]NLD(NMe2)[NMeE][Trp(1-Me)]K([CO-Piperazinyl(4-CH2COOH)])[Trp(1-Me)]T[Aad](NH2)C-NH2; thioether N-12)
< 1	CCCCC[C@H]1NC(=O)CSC[C@@H](C(N)=O)NC(=O)[C@H](CCCC(N)=O)NC(=O)[C@H]([C@@H](C)O)NC(=O)[C@H](Cc2cn(C)c3ccccc23)NC(=O)[C@H](CCCCNC(=O)N2CCN(CC(=O)O)CC2)NC(=O)[C@H](Cc2cn(C)c3ccccc23)NC(=O)[C@H](Cc2ccccc2)N(C)C(=O)[C@H](CCCC(N)=O)NC(=O)[C@H](C2CCCCC2)NC(=O)[C@H](CC(N)=O)NC(=O)[C@H](Cc2cccnc2)N(C)C1=O [PDC_EphA2-00018535, dahp-Me3Py-N-Chg-Hgn-MeF-W1Me-KCOpipzaa-W1Me-T-Hgn-C-NH2] ({CH2CO}-[dAhp(2)][NMe3Pal]N[Chg][Aad](NH2)[NMeF][Trp(1-Me)]K([CO-Piperazinyl(4-CH2COOH)])[Trp(1-Me)]T[Aad](NH2)C-NH2; thioether N-12)
< 1	C[C@H]1NC(=O)CSC[C@@H](C(N)=O)NC(=O)[C@H](CCCC(N)=O)NC(=O)[C@H]([C@@H](C)O)NC(=O)[C@H](Cc2cn(C)c3ccccc23)NC(=O)[C@H](CCCCNC(=O)N2CCN(CC(=O)O)CC2)NC(=O)[C@H](Cc2cn(C)c3ccccc23)NC(=O)[C@H](Cc2ccccc2)N(C)C(=O)[C@H](CC(=O)N(C)C)NC(=O)[C@H](C2CCCCC2)NC(=O)[C@H](CC(N)=O)NC(=O)[C@H](Cc2cccnc2)N(C)C1=O [PDC_EphA2-00018537, da-Me3Py-N-Chg-Ndm-MeF-W1Me-KCOpipzaa-W1Me-T-Hgn-C-NH2] ({CH2CO}-[dA][NMe3Pal]N[Chg]D(NMe2)[NMeF][Trp(1-Me)]K([CO-Piperazinyl(4-CH2COOH)])[Trp(1-Me)]T[Aad](NH2)C-NH2; thioether N-12)

Reference: patent US20260098061A1, “EPHA2-BINDING PENDING PEPTIDE AND COMPOSITION COMPRISING SAME” (PeptiDream Inc., priority 2022, published 2026)
